Measurements published in PubChem BioAssay AID2060494 (Molecular Pharmacology Branch, DTP, NCI, 2025).

Test system: 435261-313-R-J1-PDC complex spheroid viability
Experiment: Anticancer human tumor 435261-313-R-J1-PDC patient-derived colon adenocarcinoma cell line growth inhibition [GQUAD]
Details: for IC50: curve of first compound; for viability, T/C: stronger effect = lower value
Outline: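 Tumor cells were grown as complex spheroids with HUVEC endothelial cells and mesenchymal stem cells as stroma. G-quadruplex stabilizers were combined with targeted agents over half-log dilutions from near the clinical Cmax, or from 10 microM.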

[1] = second compound 0.0316 µM, first compound 0.0316 µM
[2] = second compound 0.0316 µM, first compound 0.1 µM
[3] = second compound 0.0316 µM, first compound 0.316 µM
[4] = second compound 0.0316 µM, first compound 1 µM
[5] = second compound 0.0316 µM, first compound 3.16 µM
[6] = second compound 0.0316 µM, first compound 10 µM
[7] = second compound 0.1 µM, first compound 0.0316 µM
[8] = second compound 0.1 µM, first compound 0.1 µM
[9] = second compound 0.1 µM, first compound 0.316 µM
[10] = second compound 0.1 µM, first compound 1 µM
[11] = second compound 0.1 µM, first compound 3.16 µM
[12] = second compound 0.1 µM, first compound 10 µM
[13] = second compound 0.316 µM, first compound 0.0316 µM
[14] = second compound 0.316 µM, first compound 0.1 µM
[15] = second compound 0.316 µM, first compound 0.316 µM
[16] = second compound 0.316 µM, first compound 1 µM
[17] = second compound 0.316 µM, first compound 3.16 µM
[18] = second compound 0.316 µM, first compound 10 µM
[19] = second compound 1 µM, first compound 0.0316 µM
[20] = second compound 1 µM, first compound 0.1 µM
[21] = second compound 1 µM, first compound 0.316 µM
[22] = second compound 1 µM, first compound 1 µM
[23] = second compound 1 µM, first compound 3.16 µM
[24] = second compound 1 µM, first compound 10 µM
[25] = second compound 3.16 µM, first compound 0.0316 µM
[26] = second compound 3.16 µM, first compound 0.1 µM
[27] = second compound 3.16 µM, first compound 0.316 µM
[28] = second compound 3.16 µM, first compound 1 µM
[29] = second compound 3.16 µM, first compound 3.16 µM
[30] = second compound 3.16 µM, first compound 10 µM
[31] = second compound 10 µM, first compound 0.0316 µM
[32] = second compound 10 µM, first compound 0.1 µM
[33] = second compound 10 µM, first compound 0.316 µM
[34] = second compound 10 µM, first compound 1 µM
[35] = second compound 10 µM, first compound 3.16 µM
[36] = second compound 10 µM, first compound 10 µM
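Further: spheroids exposed to the agents for seven days before readout.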
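Wherever viability, T/C is given: percent of vehicle control viability with DMSO wells as 100%.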

## C#Cc1c(F)ccc2cc(O)cc(-c3ncc4c(N5CC6CCC(C5)N6)nc(OCC56CCCN5CC(F)C6)nc4c3F)c12 (stereo unspecified) + Cc1[nH]c2ccc(F)cc2c1-c1nc2c3cccnc3c3ncccc3c2[nH]1
Second compound 0.0316 µM
  IC50: > 10 µM
Second compound 0.1 µM
  IC50: > 10 µM
Second compound 0.316 µM
  IC50: > 10 µM
Second compound 1 µM
  IC50: > 10 µM
Second compound 3.16 µM
  IC50: < 0.0316 µM
Second compound 10 µM
  IC50: < 0.0316 µM
[1]
  viability, T/C: 94.8%
[2]
  viability, T/C: 106%
[3]
  viability, T/C: 88.9%
[4]
  viability, T/C: 104%
[5]
  viability, T/C: 65.6%
[6]
  viability, T/C: 58.9%
[7]
  viability, T/C: 107%
[8]
  viability, T/C: 85.4%
[9]
  viability, T/C: 104%
[10]
  viability, T/C: 62%
[11]
  viability, T/C: 61.1%
[12]
  viability, T/C: 57%
[13]
  viability, T/C: 64.5%
[14]
  viability, T/C: 111%
[15]
  viability, T/C: 75.8%
[16]
  viability, T/C: 75.4%
[17]
  viability, T/C: 84.7%
[18]
  viability, T/C: 74.4%
[19]
  viability, T/C: 61.8%
[20]
  viability, T/C: 55.1%
[21]
  viability, T/C: 85.6%
[22]
  viability, T/C: 66.9%
[23]
  viability, T/C: 63.5%
[24]
  viability, T/C: 46.3%
[25]
  viability, T/C: 51.2%
[26]
  viability, T/C: 42.9%
[27]
  viability, T/C: 39.6%
[28]
  viability, T/C: 28.4%
[29]
  viability, T/C: 45%
[30]
  viability, T/C: 0.2%
[31]
  viability, T/C: 24.2%
[32]
  viability, T/C: 28.3%
[33]
  viability, T/C: 28.4%
[34]
  viability, T/C: 37.1%
[35]
  viability, T/C: 29%
[36]
  viability, T/C: 0.26%

## CC(=O)O[C@H]1C(=O)[C@@]2(C)[C@H]([C@H](OC(=O)c3ccccc3)[C@]3(O)C[C@H](OC(=O)[C@H](O)[C@@H](NC(=O)c4ccccc4)c4ccccc4)C(C)=C1C3(C)C)[C@]1(OC(C)=O)CO[C@@H]1C[C@@H]2O + Cc1[nH]c2ccc(F)cc2c1-c1nc2c3cccnc3c3ncccc3c2[nH]1
Second compound 0.0316 µM
  IC50: > 10 µM
Second compound 0.1 µM
  IC50: > 10 µM
Second compound 0.316 µM
  IC50: > 10 µM
Second compound 1 µM
  IC50: < 0.0316 µM
Second compound 3.16 µM
  IC50: < 0.0316 µM
Second compound 10 µM
  IC50: < 0.0316 µM
[1]
  viability, T/C: 67.5%
[2]
  viability, T/C: 71.4%
[3]
  viability, T/C: 74.7%
[4]
  viability, T/C: 65.8%
[5]
  viability, T/C: 63.8%
[6]
  viability, T/C: 76.8%
[7]
  viability, T/C: 83.2%
[8]
  viability, T/C: 78.5%
[9]
  viability, T/C: 78.1%
[10]
  viability, T/C: 57.8%
[11]
  viability, T/C: 69.2%
[12]
  viability, T/C: 71%
[13]
  viability, T/C: 63.4%
[14]
  viability, T/C: 66.2%
[15]
  viability, T/C: 52.5%
[16]
  viability, T/C: 48.9%
[17]
  viability, T/C: 51%
[18]
  viability, T/C: 60%
[19]
  viability, T/C: 41.5%
[20]
  viability, T/C: 48.1%
[21]
  viability, T/C: 53%
[22]
  viability, T/C: 46.4%
[23]
  viability, T/C: 47.2%
[24]
  viability, T/C: 42.2%
[25]
  viability, T/C: 41.6%
[26]
  viability, T/C: 40.8%
[27]
  viability, T/C: 40.1%
[28]
  viability, T/C: 24.6%
[29]
  viability, T/C: 29%
[30]
  viability, T/C: 29.1%
[31]
  viability, T/C: 25.7%
[32]
  viability, T/C: 32.3%
[33]
  viability, T/C: 26.7%
[34]
  viability, T/C: 24.4%
[35]
  viability, T/C: 21.9%
[36]
  viability, T/C: 28%

## CC(C)(O)C1CCC(Nc2ccc3ncc(-c4cccc(C(F)(F)F)c4)n3n2)CC1 (stereo unspecified) + Cc1[nH]c2ccc(F)cc2c1-c1nc2c3cccnc3c3ncccc3c2[nH]1
Second compound 0.0316 µM
  IC50: 0.605 µM
Second compound 0.1 µM
  IC50: 0.683 µM
Second compound 0.316 µM
  IC50: 0.52 µM
Second compound 1 µM
  IC50: 0.229 µM
Second compound 3.16 µM
  IC50: < 0.0316 µM
Second compound 10 µM
  IC50: < 0.0316 µM
[1]
  viability, T/C: 85.1%
[2]
  viability, T/C: 93.4%
[3]
  viability, T/C: 79%
[4]
  viability, T/C: 27.4%
[5]
  viability, T/C: 6.6%
[6]
  viability, T/C: 11.2%
[7]
  viability, T/C: 80%
[8]
  viability, T/C: 79.6%
[9]
  viability, T/C: 98.3%
[10]
  viability, T/C: 32.2%
[11]
  viability, T/C: 8.63%
[12]
  viability, T/C: 8.09%
[13]
  viability, T/C: 92.8%
[14]
  viability, T/C: 90.7%
[15]
  viability, T/C: 64.5%
[16]
  viability, T/C: 31.5%
[17]
  viability, T/C: 3.9%
[18]
  viability, T/C: 11.5%
[19]
  viability, T/C: 63.4%
[20]
  viability, T/C: 61%
[21]
  viability, T/C: 44.1%
[22]
  viability, T/C: 27.3%
[23]
  viability, T/C: 6.32%
[24]
  viability, T/C: 5.71%
[25]
  viability, T/C: 23.6%
[26]
  viability, T/C: 19.2%
[27]
  viability, T/C: 30.8%
[28]
  viability, T/C: 22.3%
[29]
  viability, T/C: 3.91%
[30]
  viability, T/C: 3.07%
[31]
  viability, T/C: 18.3%
[32]
  viability, T/C: 20.8%
[33]
  viability, T/C: 18.5%
[34]
  viability, T/C: 20.4%
[35]
  viability, T/C: 1.4%
[36]
  viability, T/C: 3.39%
